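Dose response: 5 concentrations. Exposure: 48 h. Format: 96-well plates. Endpoint: linear interpolation; highest concentration if not reached. The concentration for 50% growth inhibition is given as GI50.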 Calls of active or inactive are those of the source. Rule as the data show it: active = GI50 up to about 1.1 µM and inactive = higher.
Columns and labels:
Test in all cases: inhibition of tumour cell growth, NCI panel, 48 h
[1] = test system: SK-MEL-28
[2] = test system: KM12
[3] = test system: DLD-1
[4] = test system: SK-MEL-5
[5] = test system: ACHN
[6] = test system: CCRF-CEM
[7] = test system: HOP-62
[8] = test system: LOX IMVI
[9] = test system: HCT-15
[10] = test system: SW-620
[11] = test system: HL-60
[12] = test system: UACC-257
[13] = test system: DMS-114
[14] = test system: K562
[15] = test system: HCT-116
[16] = test system: SF-268
[17] = test system: RPMI-8226
[18] = test system: M19-MEL
[19] = test system: HOP-92
[20] = test system: NCI-H23
[21] = test system: MOLT-4
[22] = test system: M14
[23] = test system: UACC-62
[24] = test system: UO-31
[25] = test system: A498
[26] = test system: EKVX
[27] = test system: COLO 205
[28] = test system: SK-MEL-2
[29] = test system: HT-29
[30] = test system: OVCAR-4
[31] = test system: SF-539
[32] = test system: TK-10
[33] = test system: OVCAR-3
[34] = test system: RXF 393
[35] = test system: NCI-H460
[36] = test system: HCC 2998
[37] = test system: KM-20L2
[38] = test system: DMS-273
[39] = test system: SNB-78
[40] = test system: SNB-19
[41] = test system: OVCAR-8
[42] = test system: SK-OV-3
[43] = test system: Malme-3M
[44] = test system: NCI-H226
[45] = test system: A549
[46] = test system: SN12C
[47] = test system: SF-295
[48] = test system: IGROV-1
[49] = test system: U-251
[50] = test system: 786-0
[51] = test system: SNB-75
[52] = test system: LXFL 529
[53] = test system: CAKI-1
[54] = test system: NCI-H522
[55] = test system: OVCAR-5
[56] = test system: HOP-18

OC1=CN=C(C2CC2)Oc2ccccc21 was tested, and the GI50 [1] was > 100 µM (inactive), the GI50 [2] was > 100 µM (inactive) and the GI50 [3] was > 100 µM (inactive). For the same molecule, the GI50 [4] was > 100 µM (inactive), the GI50 [5] was > 100 µM (inactive) and the GI50 [6] was > 100 µM (inactive). The GI50 [7] was > 100 µM (inactive), the GI50 [8] was > 100 µM (inactive) and the GI50 [9] was > 100 µM. The GI50 [10] was > 100 µM (inactive), the GI50 [11] was > 100 µM (inactive) and the GI50 [12] was > 100 µM (inactive). For the same molecule, the GI50 [13] was 41 µM (inactive), the GI50 [14] was 84.9 µM (inactive) and the GI50 [15] was > 100 µM (inactive). The GI50 [16] was > 100 µM (inactive), the GI50 [17] was > 100 µM (inactive) and the GI50 [18] was > 100 µM (inactive). The GI50 [19] was 96.2 µM (inactive), the GI50 [20] was > 100 µM (inactive) and the GI50 [21] was > 100 µM (inactive). For the same molecule, the GI50 [22] was > 100 µM (inactive), the GI50 [23] was 98.6 µM (inactive) and the GI50 [24] was 25.7 µM (inactive). For the same molecule, the GI50 [25] was > 100 µM (inactive), the GI50 [26] was > 100 µM (inactive) and the GI50 [27] was > 100 µM (inactive). The GI50 [28] was > 100 µM (inactive), the GI50 [29] was > 100 µM (inactive) and the GI50 [30] was 85.3 µM (inactive). For the same molecule, the GI50 [31] was > 100 µM (inactive), the GI50 [32] was > 100 µM (inactive) and the GI50 [33] was > 100 µM (inactive). For the same molecule, the GI50 [34] was > 100 µM (inactive), the GI50 [35] was > 100 µM (inactive) and the GI50 [36] was > 100 µM (inactive). The GI50 [37] was > 100 µM (inactive), the GI50 [38] was > 100 µM (inactive) and the GI50 [39] was > 100 µM (inactive). The GI50 [40] was > 100 µM (inactive), the GI50 [41] was > 100 µM (inactive) and the GI50 [42] was > 100 µM (inactive). For the same molecule, the GI50 [43] was > 100 µM (inactive), the GI50 [44] was 15.5 µM (inactive) and the GI50 [45] was > 100 µM (inactive). The GI50 [46] was > 100 µM (inactive), the GI50 [47] was 83.2 µM (inactive) and the GI50 [48] was > 100 µM (inactive). For the same molecule, the GI50 [49] was > 100 µM (inactive), the GI50 [50] was > 100 µM (inactive) and the GI50 [51] was > 100 µM (inactive). The GI50 [52] was > 100 µM (inactive).
For C/C=C/CC(C)[C@@H](O)[C@H](NC)C(=O)O (some centres undefined), the GI50 [1] was > 100 µM (inactive), the GI50 [2] was > 100 µM (inactive) and the GI50 [53] was > 100 µM (inactive). For the same molecule, the GI50 [3] was > 100 µM (inactive), the GI50 [4] was > 100 µM (inactive) and the GI50 [5] was > 100 µM (inactive). For the same molecule, the GI50 [6] was > 100 µM (inactive), the GI50 [7] was > 100 µM (inactive) and the GI50 [8] was > 100 µM (inactive). For the same molecule, the GI50 [9] was > 100 µM, the GI50 [10] was > 100 µM (inactive) and the GI50 [11] was > 100 µM (inactive). For the same molecule, the GI50 [12] was > 100 µM (inactive), the GI50 [54] was > 100 µM (inactive) and the GI50 [55] was > 100 µM (inactive). For the same molecule, the GI50 [13] was > 100 µM (inactive), the GI50 [14] was > 100 µM (inactive) and the GI50 [16] was > 100 µM (inactive). For the same molecule, the GI50 [17] was > 100 µM (inactive), the GI50 [18] was > 100 µM (inactive) and the GI50 [19] was > 100 µM (inactive). For the same molecule, the GI50 [20] was > 100 µM (inactive), the GI50 [21] was > 100 µM (inactive) and the GI50 [22] was > 100 µM (inactive). For the same molecule, the GI50 [23] was > 100 µM (inactive), the GI50 [24] was > 100 µM (inactive) and the GI50 [26] was > 100 µM (inactive). The GI50 [27] was > 100 µM (inactive), the GI50 [28] was > 100 µM (inactive) and the GI50 [29] was > 100 µM (inactive). For the same molecule, the GI50 [30] was > 100 µM (inactive), the GI50 [31] was > 100 µM (inactive) and the GI50 [32] was > 100 µM (inactive). The GI50 [33] was > 100 µM (inactive), the GI50 [34] was > 100 µM (inactive) and the GI50 [35] was > 100 µM (inactive). For the same molecule, the GI50 [36] was > 100 µM (inactive), the GI50 [37] was > 100 µM (inactive) and the GI50 [38] was > 100 µM (inactive). For the same molecule, the GI50 [40] was > 100 µM (inactive), the GI50 [41] was > 100 µM (inactive) and the GI50 [42] was > 100 µM (inactive). For the same molecule, the GI50 [43] was > 100 µM (inactive), the GI50 [45] was > 100 µM (inactive) and the GI50 [46] was > 100 µM (inactive). For the same molecule, the GI50 [47] was > 100 µM (inactive), the GI50 [48] was > 100 µM (inactive) and the GI50 [49] was > 100 µM (inactive). The GI50 [56] was > 100 µM (inactive), the GI50 [50] was > 100 µM (inactive) and the GI50 [51] was > 100 µM (inactive). The GI50 [52] was > 100 µM (inactive).

Reference: ChEMBL document CHEMBL1201862, “PubChem BioAssay data set” (2004)
